# What was measured:
# [1] = biological target: Dual specificity tyrosine-phosphorylation-regulated kinase 1B (Homo sapiens) (UniProt Q9Y463); assay: Inhibition of human GST-tagged DYRK1B extracted from Escherichia coli assessed as residual activity using gamma-32 ATP and KKISGRLSPIMTEQ as substrate at 1 uM by radiometric kinase assay relative to control
# [2] = rat, microsomes
# [3] = Metabolic stability in rat liver microsomes assessed as half life; assay type: ADME, Microsome
# [4] = Metabolic stability in rat liver microsomes assessed as degradation; assay type: ADME, Microsome; conditions: read-out: Drug degradation
# [5] = biological target: Serine/threonine-protein kinase pim-1 (Homo sapiens) (UniProt P11309); assay: Inhibition of PIM1 (unknown origin) at 0.35 uM by Z-LYTE kinase activity assay relative to control
# [6] = biological target: T1, Dual specificity protein kinase CLK4 (Homo sapiens, UniProt Q9HAZ1); assay: Inhibition of CLK4 (unknown origin) at 0.35 uM by LanthaScreen kinase binding assay relative to control
# Target sequence in this assay (Q9HAZ1 whole entry, looked up): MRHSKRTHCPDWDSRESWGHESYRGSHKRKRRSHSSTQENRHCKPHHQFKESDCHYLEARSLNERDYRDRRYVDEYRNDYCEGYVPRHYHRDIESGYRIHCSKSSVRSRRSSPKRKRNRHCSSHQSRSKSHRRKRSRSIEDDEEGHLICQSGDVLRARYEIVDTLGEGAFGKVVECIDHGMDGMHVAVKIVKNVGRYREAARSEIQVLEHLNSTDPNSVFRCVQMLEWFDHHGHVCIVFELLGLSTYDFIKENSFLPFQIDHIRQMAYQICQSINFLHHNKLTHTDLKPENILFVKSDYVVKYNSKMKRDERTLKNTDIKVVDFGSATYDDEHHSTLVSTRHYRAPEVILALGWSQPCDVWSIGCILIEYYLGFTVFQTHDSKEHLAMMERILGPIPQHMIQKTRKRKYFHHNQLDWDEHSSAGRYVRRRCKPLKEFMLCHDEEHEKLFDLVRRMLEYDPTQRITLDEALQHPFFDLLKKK
# [7] = biological target: Dual specificity protein kinase CLK1 (Homo sapiens) (UniProt P49759); assay: Inhibition of CLK1 (unknown origin) at 0.35 uM by Z-LYTE kinase activity assay relative to control
# [8] = biological target: T2, Dual specificity tyrosine-phosphorylation-regulated kinase 3 (Homo sapiens) (UniProt O43781); assay: Inhibition of DYRK3 (unknown origin) at 0.35 uM by Z-LYTE kinase activity assay relative to control
# T2 sequence (whole entry): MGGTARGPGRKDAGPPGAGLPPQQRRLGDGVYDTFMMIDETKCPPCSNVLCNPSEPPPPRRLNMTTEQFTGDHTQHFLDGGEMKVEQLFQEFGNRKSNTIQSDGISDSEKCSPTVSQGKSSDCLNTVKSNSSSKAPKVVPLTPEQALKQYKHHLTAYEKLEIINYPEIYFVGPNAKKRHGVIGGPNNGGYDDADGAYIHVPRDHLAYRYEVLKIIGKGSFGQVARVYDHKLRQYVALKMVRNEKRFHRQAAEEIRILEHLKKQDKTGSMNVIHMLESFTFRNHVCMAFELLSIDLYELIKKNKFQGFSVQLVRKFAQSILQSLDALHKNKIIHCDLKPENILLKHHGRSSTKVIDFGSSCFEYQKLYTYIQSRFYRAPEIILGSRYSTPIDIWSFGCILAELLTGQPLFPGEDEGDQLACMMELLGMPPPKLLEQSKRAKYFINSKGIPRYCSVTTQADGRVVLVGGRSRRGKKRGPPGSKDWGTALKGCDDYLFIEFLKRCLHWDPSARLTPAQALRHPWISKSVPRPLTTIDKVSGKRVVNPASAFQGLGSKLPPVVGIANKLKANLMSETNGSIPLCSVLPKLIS
# [9] = biological target: Serine/threonine-protein kinase 33 (Homo sapiens) (UniProt Q9BYT3); assay: Inhibition of STK33 (unknown origin) at 0.35 uM by LanthaScreen kinase binding assay relative to control
# [10] = biological target: T3, Serine/threonine-protein kinase 17A (Homo sapiens) (UniProt Q9UEE5); assay: Inhibition of STK17A (DRAK1) (unknown origin) at 0.35 uM by LanthaScreen kinase binding assay relative to control
# T3 sequence (whole entry): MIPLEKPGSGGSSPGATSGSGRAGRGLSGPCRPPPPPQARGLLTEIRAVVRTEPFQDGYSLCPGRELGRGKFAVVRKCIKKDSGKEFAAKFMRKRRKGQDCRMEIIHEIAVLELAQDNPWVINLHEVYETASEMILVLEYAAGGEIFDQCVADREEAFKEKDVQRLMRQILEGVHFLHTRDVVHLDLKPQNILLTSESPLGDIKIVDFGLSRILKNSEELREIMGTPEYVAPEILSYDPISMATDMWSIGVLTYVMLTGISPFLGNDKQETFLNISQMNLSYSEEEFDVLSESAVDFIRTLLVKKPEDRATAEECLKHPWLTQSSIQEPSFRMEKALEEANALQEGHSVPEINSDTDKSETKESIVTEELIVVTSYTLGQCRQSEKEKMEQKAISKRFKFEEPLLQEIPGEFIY
# [11] = biological target: Cyclin-dependent kinase 5/CDK5 activator 1 (Homo sapiens) (UniProt Q00535+Q15078); assay: Inhibition of CDK5/p25 (unknown origin) at 0.35 uM by Z-LYTE kinase activity assay relative to control; assay type: protein-complex assay
# [12] = biological target: T4, Dual specificity tyrosine-phosphorylation-regulated kinase 2 (Homo sapiens) (UniProt Q92630); assay: Inhibition of DYRK2 (unknown origin) at 0.35 uM by LanthaScreen kinase binding assay relative to control
# T4 sequence (whole entry): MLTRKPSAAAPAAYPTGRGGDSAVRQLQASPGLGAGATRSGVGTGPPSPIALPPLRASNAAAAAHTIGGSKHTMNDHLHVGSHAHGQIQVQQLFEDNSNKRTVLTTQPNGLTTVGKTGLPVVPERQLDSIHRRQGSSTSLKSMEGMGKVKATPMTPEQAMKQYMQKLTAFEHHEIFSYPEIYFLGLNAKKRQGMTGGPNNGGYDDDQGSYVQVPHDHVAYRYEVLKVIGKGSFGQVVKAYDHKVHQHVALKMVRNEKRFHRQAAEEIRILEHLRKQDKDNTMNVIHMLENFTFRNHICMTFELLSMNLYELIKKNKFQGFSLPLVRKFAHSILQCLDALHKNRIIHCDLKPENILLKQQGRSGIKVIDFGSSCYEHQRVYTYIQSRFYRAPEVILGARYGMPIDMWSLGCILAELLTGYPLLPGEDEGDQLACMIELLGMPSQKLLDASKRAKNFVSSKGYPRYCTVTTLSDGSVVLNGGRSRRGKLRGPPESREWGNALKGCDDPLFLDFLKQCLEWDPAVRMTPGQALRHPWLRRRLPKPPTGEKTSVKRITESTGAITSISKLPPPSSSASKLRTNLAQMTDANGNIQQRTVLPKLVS
# [13] = biological target: Myosin light chain kinase 2, skeletal/cardiac muscle (Homo sapiens) (UniProt Q9H1R3); assay: Inhibition of MLCK2 (unknown origin) at 0.35 uM by LanthaScreen kinase binding assay relative to control
# [14] = biological target: SRSF protein kinase 2 (Homo sapiens) (UniProt P78362); assay: Inhibition of SRPK2 (unknown origin) at 0.35 uM by Z-LYTE kinase activity assay relative to control
# [15] = biological target: Dual specificity tyrosine-phosphorylation-regulated kinase 1B (Homo sapiens) (UniProt Q9Y463); assay: Inhibition of DYRK1B (unknown origin) at 0.35 uM by radiometric assay relative to control
# [16] = biological target: Epidermal growth factor receptor (Homo sapiens) (UniProt P00533); assay: Inhibition of EGFR (ErbB1) (unknown origin) at 0.35 uM by Z-LYTE kinase activity assay relative to control
# [17] = biological target: T5, Serine/threonine-protein kinase haspin (Homo sapiens, UniProt Q8TF76); assay: Inhibition of GSG2 (haspin) (unknown origin) by radiometric assay relative to control
# T5 sequence (Q8TF76 whole entry): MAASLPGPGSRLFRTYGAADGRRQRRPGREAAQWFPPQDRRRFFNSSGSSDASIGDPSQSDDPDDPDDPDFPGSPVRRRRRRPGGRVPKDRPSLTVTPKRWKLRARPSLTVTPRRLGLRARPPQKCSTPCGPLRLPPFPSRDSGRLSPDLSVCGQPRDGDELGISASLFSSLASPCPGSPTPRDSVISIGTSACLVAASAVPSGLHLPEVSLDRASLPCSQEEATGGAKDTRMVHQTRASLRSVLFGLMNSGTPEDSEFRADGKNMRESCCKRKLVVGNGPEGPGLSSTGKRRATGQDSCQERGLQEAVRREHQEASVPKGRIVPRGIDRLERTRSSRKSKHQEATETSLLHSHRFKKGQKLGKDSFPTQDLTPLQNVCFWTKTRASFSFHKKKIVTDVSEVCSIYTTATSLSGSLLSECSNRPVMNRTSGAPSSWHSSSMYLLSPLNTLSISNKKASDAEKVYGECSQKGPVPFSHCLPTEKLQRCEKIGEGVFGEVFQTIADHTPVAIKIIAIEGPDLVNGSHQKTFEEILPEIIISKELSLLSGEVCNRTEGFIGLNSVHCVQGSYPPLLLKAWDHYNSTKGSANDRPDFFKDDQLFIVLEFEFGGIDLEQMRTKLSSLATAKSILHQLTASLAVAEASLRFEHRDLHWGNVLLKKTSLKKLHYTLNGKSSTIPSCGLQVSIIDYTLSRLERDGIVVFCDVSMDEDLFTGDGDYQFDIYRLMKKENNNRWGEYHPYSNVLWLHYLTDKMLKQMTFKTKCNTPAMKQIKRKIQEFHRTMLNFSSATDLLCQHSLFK
# [18] = biological target: T1, Dual specificity protein kinase CLK4; assay: Inhibition of CLK4 (unknown origin) by radiometric assay relative to control
# Target sequence in this assay (Q9HAZ1 whole entry): as the sequence (Q9HAZ1 whole entry, looked up) above
# [19] = biological target: T1, Dual specificity protein kinase CLK4; assay: Inhibition of CLK4 (unknown origin) at 0.35 uM by radiometric assay relative to control
# Target sequence in this assay (Q9HAZ1 whole entry, looked up): as the sequence (Q9HAZ1 whole entry, looked up) above
# [20] = biological target: BDNF/NT-3 growth factors receptor (Homo sapiens) (UniProt Q16620); assay: Inhibition of NTRK2 (TRKB) (unknown origin) at 0.35 uM by Z-LYTE kinase activity assay relative to control
# [21] = biological target: Dual specificity protein kinase CLK3 (Homo sapiens) (UniProt P49761); assay: Inhibition of CLK3 (unknown origin) at 0.35 uM by Z-LYTE kinase activity assay relative to control
# [22] = biological target: SRSF protein kinase 1 (Homo sapiens) (UniProt Q96SB4); assay: Inhibition of SRPK1 (unknown origin) at 0.35 uM by Z-LYTE kinase activity assay relative to control
# [23] = biological target: Homeodomain-interacting protein kinase 1 (Homo sapiens) (UniProt Q86Z02); assay: Inhibition of HIPK1 (Myak) (unknown origin) at 0.35 uM by Z-LYTE kinase activity assay relative to control
# [24] = biological target: Dual specificity tyrosine-phosphorylation-regulated kinase 1B (Homo sapiens) (UniProt Q9Y463); assay: Inhibition of DYRK1B (unknown origin) at 0.35 uM by Z-LYTE kinase activity assay relative to control
# U-87 MG = assay: cells; conditions: Homo sapiens, 72 h
# [25] = biological target: T6, Serine/threonine-protein kinase haspin (Homo sapiens) (UniProt Q8TF76); assay: Inhibition of GSG2 (haspin) (unknown origin) at 0.35 uM by Adapta kinase activity assay relative to control
# T6 sequence (whole entry): T5 sequence (Q8TF76 whole entry)
# [26] = biological target: T6, Serine/threonine-protein kinase haspin (Homo sapiens); assay: Inhibition of GSG2 (haspin) (unknown origin) at 0.35 uM by radiometric assay relative to control
# [27] = biological target: T1, Dual specificity protein kinase CLK4; assay: Inhibition of CLK4 (unknown origin) by LanthaScreen kinase binding assay relative to control
# Target sequence in this assay (Q9HAZ1 whole entry): as the sequence (Q9HAZ1 whole entry, looked up) above
# [28] = biological target: T5, Serine/threonine-protein kinase haspin; assay: Inhibition of GSG2 (haspin) (unknown origin) by Adapta kinase activity assay relative to control
# [29] = biological target: Dual specificity protein kinase CLK1 (Homo sapiens) (UniProt P49759); assay: Inhibition of CLK1 (unknown origin) at 0.35 uM by radiometric assay relative to control
# cells = conditions: Homo sapiens, U373 MG, 72 h
# Sequence of Dual specificity tyrosine-phosphorylation-regulated kinase 1B (Homo sapiens) (Q9Y463 whole entry, looked up): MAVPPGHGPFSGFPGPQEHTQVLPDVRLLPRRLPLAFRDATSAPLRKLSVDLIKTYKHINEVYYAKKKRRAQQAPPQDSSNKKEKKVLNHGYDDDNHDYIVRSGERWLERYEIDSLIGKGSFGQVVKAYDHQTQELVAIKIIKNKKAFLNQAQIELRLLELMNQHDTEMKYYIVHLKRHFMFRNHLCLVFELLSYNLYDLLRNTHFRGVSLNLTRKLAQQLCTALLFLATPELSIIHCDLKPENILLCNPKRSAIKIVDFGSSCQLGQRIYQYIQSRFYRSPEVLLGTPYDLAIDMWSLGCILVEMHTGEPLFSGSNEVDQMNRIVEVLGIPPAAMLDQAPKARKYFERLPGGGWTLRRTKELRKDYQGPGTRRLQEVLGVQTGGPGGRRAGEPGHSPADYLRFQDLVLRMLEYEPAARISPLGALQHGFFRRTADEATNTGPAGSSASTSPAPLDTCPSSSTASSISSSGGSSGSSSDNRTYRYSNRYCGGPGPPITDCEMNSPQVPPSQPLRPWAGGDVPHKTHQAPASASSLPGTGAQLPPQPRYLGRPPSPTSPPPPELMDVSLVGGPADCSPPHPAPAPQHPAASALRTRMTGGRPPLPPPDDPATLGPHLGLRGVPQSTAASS
# Sequence of Dual specificity protein kinase CLK1 (Homo sapiens) (P49759 whole entry, looked up): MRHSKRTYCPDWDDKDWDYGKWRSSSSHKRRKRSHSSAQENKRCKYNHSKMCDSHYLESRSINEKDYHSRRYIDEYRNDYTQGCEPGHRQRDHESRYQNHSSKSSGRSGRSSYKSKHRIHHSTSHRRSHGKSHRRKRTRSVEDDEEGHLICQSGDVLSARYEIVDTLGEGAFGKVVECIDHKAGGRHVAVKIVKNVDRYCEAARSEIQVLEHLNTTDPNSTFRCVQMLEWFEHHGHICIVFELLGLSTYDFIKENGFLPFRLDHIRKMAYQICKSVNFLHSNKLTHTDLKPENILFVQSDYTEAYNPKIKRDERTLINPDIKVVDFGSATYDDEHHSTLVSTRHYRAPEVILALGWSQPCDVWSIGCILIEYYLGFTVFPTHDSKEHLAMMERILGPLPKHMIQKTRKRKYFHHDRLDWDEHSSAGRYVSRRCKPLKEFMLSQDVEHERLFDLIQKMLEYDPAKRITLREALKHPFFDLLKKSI
# Sequence of Cyclin-dependent kinase 5/CDK5 activator 1 (Homo sapiens) (Q00535 whole entry): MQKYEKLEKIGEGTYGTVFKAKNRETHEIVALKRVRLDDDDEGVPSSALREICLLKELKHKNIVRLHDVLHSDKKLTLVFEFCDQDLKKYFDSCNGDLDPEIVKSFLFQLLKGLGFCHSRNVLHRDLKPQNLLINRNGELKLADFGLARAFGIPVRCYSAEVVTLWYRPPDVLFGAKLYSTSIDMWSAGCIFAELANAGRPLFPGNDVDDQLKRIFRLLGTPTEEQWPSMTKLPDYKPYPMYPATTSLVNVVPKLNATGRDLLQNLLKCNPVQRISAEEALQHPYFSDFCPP
# Sequence of Cyclin-dependent kinase 5/CDK5 activator 1 (Homo sapiens) (Q15078 99-307 partner limits assumed): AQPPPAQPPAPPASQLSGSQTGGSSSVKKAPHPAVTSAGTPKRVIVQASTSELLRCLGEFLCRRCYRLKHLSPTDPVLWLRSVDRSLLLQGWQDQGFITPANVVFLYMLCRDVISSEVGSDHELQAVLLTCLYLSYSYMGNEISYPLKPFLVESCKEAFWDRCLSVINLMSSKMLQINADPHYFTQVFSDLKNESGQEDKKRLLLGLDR
# Sequence of Serine/threonine-protein kinase 33 (Homo sapiens) (Q9BYT3 whole entry, looked up): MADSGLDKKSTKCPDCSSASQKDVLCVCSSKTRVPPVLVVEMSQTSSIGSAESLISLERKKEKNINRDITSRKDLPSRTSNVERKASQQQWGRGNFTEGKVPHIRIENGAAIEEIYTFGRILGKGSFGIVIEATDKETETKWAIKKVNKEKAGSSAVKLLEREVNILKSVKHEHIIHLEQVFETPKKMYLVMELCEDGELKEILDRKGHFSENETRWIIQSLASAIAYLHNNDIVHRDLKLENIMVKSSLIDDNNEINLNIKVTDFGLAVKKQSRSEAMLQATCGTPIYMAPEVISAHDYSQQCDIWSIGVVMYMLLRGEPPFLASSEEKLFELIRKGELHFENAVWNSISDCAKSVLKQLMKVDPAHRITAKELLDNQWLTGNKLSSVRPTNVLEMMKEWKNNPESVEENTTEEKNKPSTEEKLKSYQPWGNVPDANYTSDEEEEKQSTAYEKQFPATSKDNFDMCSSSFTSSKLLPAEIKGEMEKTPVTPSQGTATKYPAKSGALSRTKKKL
# Sequence of Epidermal growth factor receptor (Homo sapiens) (P00533 whole entry): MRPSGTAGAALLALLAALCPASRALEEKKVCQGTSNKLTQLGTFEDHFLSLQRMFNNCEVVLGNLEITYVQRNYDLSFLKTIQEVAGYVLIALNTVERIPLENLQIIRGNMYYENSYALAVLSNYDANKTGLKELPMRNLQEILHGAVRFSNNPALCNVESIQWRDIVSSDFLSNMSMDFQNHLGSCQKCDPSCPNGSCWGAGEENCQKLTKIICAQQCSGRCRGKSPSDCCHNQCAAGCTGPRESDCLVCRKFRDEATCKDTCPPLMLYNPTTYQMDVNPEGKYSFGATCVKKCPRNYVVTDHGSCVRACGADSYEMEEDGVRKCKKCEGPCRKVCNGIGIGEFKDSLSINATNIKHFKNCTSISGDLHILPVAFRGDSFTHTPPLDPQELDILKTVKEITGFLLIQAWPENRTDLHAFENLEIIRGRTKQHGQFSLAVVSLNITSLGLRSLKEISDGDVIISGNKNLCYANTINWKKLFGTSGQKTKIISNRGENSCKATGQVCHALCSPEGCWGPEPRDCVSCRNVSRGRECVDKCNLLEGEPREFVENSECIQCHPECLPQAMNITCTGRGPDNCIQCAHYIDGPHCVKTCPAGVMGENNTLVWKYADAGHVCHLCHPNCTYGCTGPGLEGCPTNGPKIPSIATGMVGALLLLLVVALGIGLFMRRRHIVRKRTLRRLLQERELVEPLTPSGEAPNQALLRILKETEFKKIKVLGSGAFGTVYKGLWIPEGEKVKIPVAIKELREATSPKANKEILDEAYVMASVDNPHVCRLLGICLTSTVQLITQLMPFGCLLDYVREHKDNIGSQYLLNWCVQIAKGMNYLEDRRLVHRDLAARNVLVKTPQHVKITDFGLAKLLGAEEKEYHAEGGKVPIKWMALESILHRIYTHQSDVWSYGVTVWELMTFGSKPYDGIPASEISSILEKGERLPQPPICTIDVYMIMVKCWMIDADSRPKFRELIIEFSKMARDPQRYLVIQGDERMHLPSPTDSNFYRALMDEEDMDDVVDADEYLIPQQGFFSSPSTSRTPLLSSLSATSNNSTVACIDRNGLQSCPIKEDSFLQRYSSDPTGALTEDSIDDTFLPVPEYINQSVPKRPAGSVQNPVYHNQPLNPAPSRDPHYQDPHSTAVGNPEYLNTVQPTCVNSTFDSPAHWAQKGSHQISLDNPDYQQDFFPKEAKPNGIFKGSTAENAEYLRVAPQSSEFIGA
# Sequence of Myosin light chain kinase 2, skeletal/cardiac muscle (Homo sapiens) (Q9H1R3 whole entry): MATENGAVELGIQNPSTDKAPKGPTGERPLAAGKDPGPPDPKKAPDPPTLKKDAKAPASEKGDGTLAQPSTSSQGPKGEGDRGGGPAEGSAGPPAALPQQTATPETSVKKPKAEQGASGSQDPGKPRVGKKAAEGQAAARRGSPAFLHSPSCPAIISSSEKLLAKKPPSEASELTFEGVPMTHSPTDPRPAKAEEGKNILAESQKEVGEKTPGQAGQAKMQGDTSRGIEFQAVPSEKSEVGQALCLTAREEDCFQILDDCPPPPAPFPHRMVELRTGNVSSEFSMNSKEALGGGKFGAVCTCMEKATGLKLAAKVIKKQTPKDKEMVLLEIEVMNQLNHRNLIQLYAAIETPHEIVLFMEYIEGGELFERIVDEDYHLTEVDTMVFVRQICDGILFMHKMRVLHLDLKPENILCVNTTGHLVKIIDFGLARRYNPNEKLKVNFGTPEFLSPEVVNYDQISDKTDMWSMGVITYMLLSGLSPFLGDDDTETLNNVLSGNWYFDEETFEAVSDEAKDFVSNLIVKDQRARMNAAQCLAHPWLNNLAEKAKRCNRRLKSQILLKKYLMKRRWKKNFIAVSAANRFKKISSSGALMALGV
compound,measurement,setting,value
COc1ccc2c(c1)C(=O)c1sc3ccc(OC)cc3c1-2,Activity,[1]; INHIBITOR,< 5%
same,CLH,[2],122 µL/min/mg
same,t1/2,[3],18.9 min
COc1ccc2c(c1)-c1c(sc3ccc(O)cc13)C2=O,Activity,[1],89%
same,metabolised,[4],50%
COc1ccc2c(c1)-c1c(sc3ccccc13)C2=O,Activity,[1]; INHIBITOR,< 5%
same,CLH,[2],68.8 µL/min/mg
same,t1/2,[3],33.7 min
COc1ccc2c(c1)C(=O)c1sc3ccc(O)cc3c1-2,inhibition,[5],0%
same,inhibition,[6],95%
same,inhibition,[7],16%
same,inhibition,[8],5%
same,inhibition,[9],8%
same,inhibition,[10],42%
same,inhibition,[11],8%
same,Activity,[1],93%
same,inhibition,[12],66%
same,inhibition,[13],15%
same,inhibition,[14],0%
same,inhibition,[15],47%
same,inhibition,[16],0%
same,IC50,[17],0.076 µM
same,IC50,[18],0.026 µM
same,inhibition,[19],91%
same,inhibition,[20],0%
same,inhibition,[21],7%
same,inhibition,[22],6%
same,inhibition,[23],0%
same,inhibition,[24],57%
same,IC50,U-87 MG,45.9 µM
same,inhibition,[25],95%
same,inhibition,[26],88%
same,IC50,[27],0.014 µM
same,IC50,[28],0.028 µM
same,inhibition,[29],93%
COc1ccc2c(c1)C(=O)c1sc3ccc(F)cc3c1-2,Activity,[1],78%
same,Activity,[1]; INHIBITOR,< 5%
same,CLH,[2],93.9 µL/min/mg
same,t1/2,[3],16.8 min
COc1cccc2c1-c1c(sc3ccccc13)C2=O,Activity,[1]; INHIBITOR,< 5%
same,CLH,[2],355.5 µL/min/mg
same,t1/2,[3],6.5 min
COc1cccc2c1C(=O)c1sc3ccc(O)cc3c1-2,Activity,[1],78%
COc1ccc2c(c1)-c1c(sc3ccc(OC)cc13)C2=O,Activity,[1]; INHIBITOR,< 5%
same,CLH,[2],92.4 µL/min/mg
O=C1c2ccccc2-c2c1sc1ccc(O)cc21,Activity,[1]; INHIBITOR,< 5%
same,IC50,U-87 MG,> 100 µM
same,IC50,cells,> 100 µM
COc1ccc2sc3c(c2c1)-c1c(OC)cccc1C3=O,Activity,[1],68%
same,CLH,[2],> 500 µL/min/mg
same,t1/2,[3],< 5 min
COc1ccc2c(c1)C(=O)c1sc3ccccc3c1-2,Activity,[1]; INHIBITOR,< 5%
same,CLH,[2],94.8 µL/min/mg
same,t1/2,[3],24.4 min
COc1ccc2sc3c(c2c1)-c1ccccc1C3=O,Activity,[1]; INHIBITOR,7%
COc1cccc2c1C(=O)c1sc3ccccc3c1-2,Activity,[1]; INHIBITOR,< 5%
same,CLH,[2],> 500 µL/min/mg
same,t1/2,[3],< 5 min
